Measured values taken from paper PMC12071598, “Piperazine-Substituted Pyranopyridines Exhibit Antiproliferative Activity and Act as Inhibitors of HBV Virion Production” (International Journal of Molecular Sciences, 2025).
Values after ≈ are worked out from the molar mass of the structure shown. Where two headings read alike, the source gives them in different places.

Key:
NDV = assay: microbe, parasite or virus in culture; assay type: cell-based, Newcastle disease virus; details: avian paramyxovirus 1, 48 h, read-out: NDV IC50, µM
Nrf2/ARE pathway = assay: Status of Nrf2/ARE pathway, real-time RT-PCR in A549 cells; assay type: cell-based; details: A549, 10 µM, three days
Procedure: Increased ROS production is often counteracted by the induction of antioxidant enzymes, many of which are controlled by the Nrf2 transcription factor [49]. So, we analyzed if the compounds could have activated this antioxidant defense system.
A possible effect of the least-toxic 3 compounds (DO11-37, DO11-45, and DO11-47) on the status of Nrf2/ARE pathway was analyzed by quantification of expression of Nrf2 and Nrf2-dependend genes using real-time PCR analysis. A549 cells were seeded in 6-well plates at a density of 3.09 × 10^5 cells/well in DMEM-F12 media supplemented with FBS and glutamine and treated with 10 µM compounds for three days. Next, total RNA was isolated using CleanRNA standard kit (Evrogen) with subsequent treatment with DNAseI (Roche, Basel, Switzerland), and 2 µg of RNA from each sample was reverse-transcribed using random hexamer primer and mint reverse transcriptase according to manufacturer’s protocol and subjected to real-time PCR as described previously using primers listed in the Table 5.

HepaRG = assay: Cytotoxicity towards non-tumor differentiated HepaRG cells, MTT; assay type: cell-based, human; details: concentration decreasing number of viable cells by 50%; for IC50: Homo sapiens
HeLa = assay: Antiproliferative activity, MTT assay, HeLa; assay type: cell-based; details: Homo sapiens, HeLa cervix carcinoma, 72 h
HSV-1 = assay: microbe, parasite or virus in culture; assay type: cell-based, herpes simplex virus type 1; details: Human alphaherpesvirus 1, 48 h, read-out: HSV-1 IC50, µM
SH-SY5Y = assay: Antiproliferative activity, crystal violet staining, SH-SY5Y; assay type: cell-based; details: Homo sapiens, SH-SY5Y neuroblastoma, 72 h
DU145 = assay: Antiproliferative activity, MTT assay, DU145; assay type: cell-based; details: Homo sapiens, DU-145, DU145 prostate carcinoma, 72 h
[1] = Cytotoxicity by MTS assay in MDCK cells; assay type: cell-based; details: dog, read-out: Influenza A Virus CC50
Procedure: Production of influenza A virus (H1N1) stock and its infection of MDCK cells, as well as infection of Vero E6 cells with SARS-CoV-2, were described previously. Cytotoxicity of the compounds towards MDCK and VeroE6 cells was assessed by seeding 18,000 cells/well of […] plates in 0.1 mL DMEM, treating with the compounds for 66 h, and measuring cell viability by MTS assay. As positive controls, oseltamivir and N-hydroxicytidine were used (obtained from Sigma).
The compounds were added at non-toxic concentrations in serum-free DMEM to the respective cells; one hour later, the serial 10-fold dilutions of influenza virus or SARS-CoV-2 were added in serum-free medium, and antiviral activity was determined by the reduction in the infectious titer of the virus by cytopathic action (CPE). Calculation of 50% cytotoxic concentration (CC50) and 50% effective concentration (IC50) was performed by standard methods using Microsoft Excel 5.0 and GraphPad Prism 8 (GraphPad Software Inc., Boston, MA, USA).

A549 [2] = assay: Antiproliferative activity, MTT assay, A549; assay type: cell-based; details: Homo sapiens, A549 lung carcinoma, 72 h
PV1 = assay: microbe, parasite or virus in culture; assay type: cell-based, poliovirus type 1; details: Enterovirus C, 48 h, read-out: PV1 IC50, µM
Influenza A virus = assay: microbe, parasite or virus in culture; assay type: cell-based, influenza A virus (H1N1)
hepatitis B virus (HBV) = assay: microbe, parasite or virus in culture; assay type: cell-based; details: Hepatitis B virus, 144 h
VV = assay: microbe, parasite or virus in culture; assay type: cell-based; details: Orthopoxvirus vaccinia, 48 h, read-out: VV IC50, µM
K562 [3] = assay: Antiproliferative activity, MTT assay, K562; assay type: cell-based; details: Homo sapiens, K562 chronic myeloid leukemia, 72 h
SARS-CoV-2 = assay: microbe, parasite or virus in culture; assay type: cell-based; details: for IC50: Severe acute respiratory syndrome coronavirus 2, Vero C1008, read-out: SARS-CoV-2 IC50, µM
H1299 cells [4] = assay: Mitochondrial membrane potential, TMRE in H1299 cells; assay type: cell-based; details: H1299, 72 h
Procedure: (§1) H1299 cells were seeded at 750 cells/well density in 96-well plate, treated with drugs for 72 h and then stained with 1 ug/mL Hoechst-33342 (Lumiprobe, Moscow, Russia), 100 nM TMRE (Lumiprobe, Russia) potential-dependent mitochondria stain, 100 nM LumiTracker LysoGreen (Lumiprobe, Russia) stain for acidic lysosomes, and 0.33 ug/mL Tubulin Tracker Deep Red (Invitrogen, USA). Cells were stained at 37 °C for 30 min with all stains, except for LysoGreen, which was added 5 min before imaging. Cells were washed once and imaged in DMEM with low autofluorescence (BioinnLabs, Rostov na Donu, Russia) with Leica DMI8 automated microscope (Wetzlar, Germany). Fluorescent imaging was performed using 10× objective with the following parameters: for Hoechst-33342 excitation 325–375 nm and emission 435–485 nm, LysoGreen 460–500/512–542 nm, TMRE 541–551/565–605 nm, and Tubulin Tracker 590–650/662–738 nm. For nuclei segmentation, we applied cyto3 model from Cellpose v3 [42] to Hoechst-33342 images, and cell cytoplasm was segmented using merged TMRE and Tubulin Tracker images with Sauvola propagation method in CellProfiler v4.2 [43]. Integrated intensity of TMRE and LysoGreen fluorescence for each cell were calculated using CellProfiler. […] Experiments were repeated two independent times, and 4 random images were recorded each time.

H1299 cells [5] = assay: Labile Fe2+ levels, HMRhoNox-M in H1299 cells; assay type: cell-based; details: H1299, 72 h
Procedure: To analyze cell death mechanisms, we stained cells NucView 488 (Biotium, Fremont, CA, USA) probe for caspase 3 and 7 activity, 1 ug/mL of non-permeable DNA dye 7-AAD (BioinnLabs, Russia), and stain for labile Fe2+ HMRhoNox-M (Lumiprobe, Russia). Cells were treated with drugs for 72 h and then stained for 30 min with 2 uM NucView 488 and 2 uM HMRhoNox-M at 37 °C. Then, cells were washed once in DMEM with low autofluorescence, then 1 ug/mL 7-AAD was added, and cells were imaged using Leica DMI8 automated microscope. Fluorescent imaging was performed using 10x objective with the following parameters: for Hoechst-33342 excitation 325–375 nm and emission 435–485 nm, NucView 488 460–500/512–542 nm, HMRho-Nox-M 541–551/565–605 nm, and 7-AAD 590–650/662–738 nm. Cells were segmented using images in bright field with cyto3 model from Cellpose and then processed in CellProfiler. 7-AAD and NucView 488 images were used to segment nuclei of necrotic or apoptotic cells in CellProfiler. If a cell contained nucleus stained with NucView 488, it was considered as apoptotic, and if it contained a nucleus stained only with 7-AAD, it was considered as necrotic. HMRhoNox-M signal was analyzed as mean fluorescence intensity per cell. Experiments were repeated two independent times, and 4 random images were recorded each time.

A549 cells = assay: Intracellular ROS assay, DCFH2-DA in A549 cells; assay type: cell-based; details: A549, 10 µM, 72 h
Excerpt: As cell death is often triggered by increased production of reactive oxygen species (ROS), the next step was to evaluate if our compounds act as pro-oxidants. ROS production was accessed using cell-permeable redox sensitive DCFH2-DA dye. […] As one of the main sites of ROS production is mitochondria, we also evaluated their membrane potential during treatment with either DO11-46 or DO11-48. […] Lysosome activation often accompany late stages of apoptosis, which is in good accordance with our data on the induction of caspase3/7 activity.
Pro-oxidant activity of the compounds was studied by quantification of ROS production using a cell-permeable fluorogenic probe 2′,7′-dichlorodihydrofluorescein diacetate (DCFH2-DA). A549 cells were seeded on a 48-well plate at a density of 10,000 cells/well. Twenty-four hours later, the compounds were added to 10 µM concentration in quadruplicate, and the cells were kept for 72 h. As a positive control, A549 cells were treated with 1 mM H2O2 for 2 h prior analysis. Then, media were replaced with the fresh FBS-lacking DMEM supplemented with 25 µM DCFH2-DA. After 45 min incubation, the cells were washed 10 times with 500 µL PBS, resuspended in 200 µL PBS and transferred to a black 96-well plate. The fluorescence intensities (FLIs) were measured using CHAMELEON V microplate reader with excitation at 485 nm and emission at 535 nm.

H1299 cells [6] = assay: Cell death in H1299 cells, NucView 488 caspase 3/7 and 7-AAD staining; assay type: cell-based; details: H1299, 72 h; 2.5 and 5 µM DO11-46 or 5 and 10 µM DO11-48
Procedure: To investigate the mechanism of the cytotoxic action of piperazine-substituted pyranopyridines, we evaluated two compounds, namely, DO11-46 and DO11-48, that acted in submicromolar concentrations. The first step was to which type of cell death they induce. This was carried out by staining H1299 cells with 7AAD dye that stains non-viable cells (with damaged membrane) and NucView-488 dye for caspase 3/7 activity as they are activated during apoptosis. Imaging and analysis protocols for H1299 were established earlier, and cells were imaged using automated microscopy and then analyzed using Cellpose and CellProfiler.
To analyze cell death mechanisms, we stained cells NucView 488 (Biotium, Fremont, CA, USA) probe for caspase 3 and 7 activity, 1 ug/mL of non-permeable DNA dye 7-AAD (BioinnLabs, Russia), and stain for labile Fe2+ HMRhoNox-M (Lumiprobe, Russia). Cells were treated with drugs for 72 h and then stained for 30 min with 2 uM NucView 488 and 2 uM HMRhoNox-M at 37 °C. Then, cells were washed once in DMEM with low autofluorescence, then 1 ug/mL 7-AAD was added, and cells were imaged using Leica DMI8 automated microscope. […] HMRhoNox-M signal was analyzed as mean fluorescence intensity per cell. Experiments were repeated two independent times, and 4 random images were recorded each time.

H1299 cells [7] = assay: Lysosome accumulation, LysoGreen in H1299 cells; assay type: cell-based; details: H1299, 72 h
Procedure: as §1

K562 [8] = system: K562; parameters: method as in PMID 22677031; details: leukemic cell lines (including K562) ref 57; cited from earlier work
A549 [9] = details: read-out: IC50 against A549; cited from earlier work
[10] = read-out: Extracellular HBV DNA (Δlog10)
[11] = read-out: Intracellular Total HBV RNA (Δlog10)

| Compound | IC50 (NDV) | IC50 (HepaRG) | IC50 (HeLa) | IC50 (HSV-1) | IC50 (SH-SY5Y) | IC50 (DU145) | CC50 at 66 h [1] | IC50 (A549 [2]) | IC50 (PV1) | Influenza A Virus Δlgmax (Influenza A virus) | log reduction at 1 µM (hepatitis B virus (HBV); [10]) | log reduction at 10 µM (hepatitis B virus (HBV); [10]) | log reduction at 1 µM (hepatitis B virus (HBV); [11]) | log reduction at 10 µM (hepatitis B virus (HBV); [11]) | IC50 (VV) | IC50 (K562 [3]) | SARS-CoV-2 Δlgmax (SARS-CoV-2) | IC50 (SARS-CoV-2) | further results |
| --- | --- | --- | --- | --- | --- | --- | --- | --- | --- | --- | --- | --- | --- | --- | --- | --- | --- | --- | --- |
| COc1cccc(NC(=O)CSc2nc(N3CCNCC3)c3c(c2C#N)CC(C)(C)OC3)c1 [DO11-47, 2-[(5-Cyano-3,3-dimethyl-8-piperazin-1-yl-3,4-dihydro-1H-pyrano[3,4-c]pyridin-6-yl)thio]-N-(3-methoxyphenyl)acetamide] | > 60 µM | 437 ± 14.8 µM | 39.3 ± 16.9 µM | > 60 µM | 36.7 ± 18.2 µM | 10 ± 2.9 µM | 810 µM | 67.8 ± 5.8 µM | > 60 µM | 0 | < 0.5 | < 0.5 | < 0.5 | < 0.5 | > 60 µM | 12.8 ± 4.2 µM | 0 | > 38 µM | expression of Nrf2, NQO1, HO-1, GCLC, and GCLM genes (Nrf2/ARE pathway): increase was not statistically significant; IC50 (µM) HepaRG (HepaRG): almost non-toxic |
| COc1ccccc1NC(=O)CSc1nc(N2CCNCC2)c2c(c1C#N)CC(C)(C)OC2 [DO11-48, 2-[(5-Cyano-3,3-dimethyl-8-piperazin-1-yl-3,4-dihydro-1H-pyrano[3,4-c]pyridin-6-yl)thio]-N-(2-methoxyphenyl)acetamide] | > 3.75 µM | 10.9 ± 1.6 µM | 2.2 ± 0.6 µM | > 3.75 µM | 18.1 ± 5.1 µM | 2.5 ± 1.2 µM | 830 µM | 3.5 ± 0.7 µM | > 3.75 µM | 0 | < 0.5 | < 0.5 | < 0.5 | < 0.5 | > 3.75 µM | 0.5 ± 0.1 µM | 0 | > 10 µM | mitochondrial membrane potential (H1299 cells [4]): neither of them caused mitochondrial dysfunction; levels of Fe2+ ions (H1299 cells [5]): did not affect; ROS generation (A549 cells): significantly increased ROS generation; number of apoptotic and necrotic cells (H1299 cells [6]): increased the number of apoptotic and necrotic cells; accumulation of lysosomes (H1299 cells [7]): induced the accumulation of lysosomes |
| CC(=O)C(=NNc1ccc2c(=O)cc(-c3ccccc3)oc2c1)N1CCCCC1 [11a, 7-[2-(2-oxo-1-(piperidin-1-yl)propylidene)hydrazinyl]-2-phenyl-4H-chromen-4-one] | – | – | – | – | – | – | – | – | – | – | – | – | – | – | – | – | – | – | IC50 against K562 (K562 [8]): 2.56 ± 0.57 µg/mL (≈ 6.57 µM) |
| CC(=O)CN1CCN(c2ccc(C(=O)C=Cc3ccc(N(C)C)cc3)cc2)CC1 [dimethylamino-4’-[N-(2-oxopropyl)-1-piperazinyl]chalcone] | – | – | – | – | – | – | – | – | – | – | – | – | – | – | – | – | – | – | IC50 (A549 [9]): 0.19 µM |
